# Assay results from article PMC4585259 (Frontiers in Pharmacology, 2015).
# Where two headings read alike, the source gives them in different places.
# Biological target: T1, rNav1.2 sodium channels (Rattus norvegicus, UniProt P04775)
# T1 construct: host or cells: HEK-293
# Test: QPatch automated patch clamp, inhibition of sodium currents evoked by 5 Hz trains at three extracellular pH values
# Assay type: cell-based
# Details: for class of pH-dependence pattern (cluster analysis): Ward's method on 18 variables of affinity, reversibility, onset; for τoffset / τonset: concentration (lidocaine 300 μM, memantine 30 μM)
# Method in brief: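 Trains of 5 steps from −90 to −10 mV every 20 s. Apparent affinity, onset/offset time constants (single-exponential fits) and reversibility (w−i)/(c−i) were derived from single-concentration data.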
# [1] = pH 6.0, single concentration (lidocaine 300 μM, memantine 30 μM), geometric mean of 5, read-out: apparent affinity
# [2] = pH 7.3, single concentration (lidocaine 300 μM, memantine 30 μM), geometric mean of 5, read-out: apparent affinity
# [3] = pH 8.6, single concentration (lidocaine 300 μM, memantine 30 μM), geometric mean of 5, read-out: apparent affinity
# [4] = pH=6.0, cc 30 mM, read-out: Apparent Affinity
# [5] = pH=7.3, cc 30 mM, read-out: Apparent Affinity
# [6] = pH=8.6, cc 30 mM, read-out: Apparent Affinity
# T1 sequence (P04775 whole entry): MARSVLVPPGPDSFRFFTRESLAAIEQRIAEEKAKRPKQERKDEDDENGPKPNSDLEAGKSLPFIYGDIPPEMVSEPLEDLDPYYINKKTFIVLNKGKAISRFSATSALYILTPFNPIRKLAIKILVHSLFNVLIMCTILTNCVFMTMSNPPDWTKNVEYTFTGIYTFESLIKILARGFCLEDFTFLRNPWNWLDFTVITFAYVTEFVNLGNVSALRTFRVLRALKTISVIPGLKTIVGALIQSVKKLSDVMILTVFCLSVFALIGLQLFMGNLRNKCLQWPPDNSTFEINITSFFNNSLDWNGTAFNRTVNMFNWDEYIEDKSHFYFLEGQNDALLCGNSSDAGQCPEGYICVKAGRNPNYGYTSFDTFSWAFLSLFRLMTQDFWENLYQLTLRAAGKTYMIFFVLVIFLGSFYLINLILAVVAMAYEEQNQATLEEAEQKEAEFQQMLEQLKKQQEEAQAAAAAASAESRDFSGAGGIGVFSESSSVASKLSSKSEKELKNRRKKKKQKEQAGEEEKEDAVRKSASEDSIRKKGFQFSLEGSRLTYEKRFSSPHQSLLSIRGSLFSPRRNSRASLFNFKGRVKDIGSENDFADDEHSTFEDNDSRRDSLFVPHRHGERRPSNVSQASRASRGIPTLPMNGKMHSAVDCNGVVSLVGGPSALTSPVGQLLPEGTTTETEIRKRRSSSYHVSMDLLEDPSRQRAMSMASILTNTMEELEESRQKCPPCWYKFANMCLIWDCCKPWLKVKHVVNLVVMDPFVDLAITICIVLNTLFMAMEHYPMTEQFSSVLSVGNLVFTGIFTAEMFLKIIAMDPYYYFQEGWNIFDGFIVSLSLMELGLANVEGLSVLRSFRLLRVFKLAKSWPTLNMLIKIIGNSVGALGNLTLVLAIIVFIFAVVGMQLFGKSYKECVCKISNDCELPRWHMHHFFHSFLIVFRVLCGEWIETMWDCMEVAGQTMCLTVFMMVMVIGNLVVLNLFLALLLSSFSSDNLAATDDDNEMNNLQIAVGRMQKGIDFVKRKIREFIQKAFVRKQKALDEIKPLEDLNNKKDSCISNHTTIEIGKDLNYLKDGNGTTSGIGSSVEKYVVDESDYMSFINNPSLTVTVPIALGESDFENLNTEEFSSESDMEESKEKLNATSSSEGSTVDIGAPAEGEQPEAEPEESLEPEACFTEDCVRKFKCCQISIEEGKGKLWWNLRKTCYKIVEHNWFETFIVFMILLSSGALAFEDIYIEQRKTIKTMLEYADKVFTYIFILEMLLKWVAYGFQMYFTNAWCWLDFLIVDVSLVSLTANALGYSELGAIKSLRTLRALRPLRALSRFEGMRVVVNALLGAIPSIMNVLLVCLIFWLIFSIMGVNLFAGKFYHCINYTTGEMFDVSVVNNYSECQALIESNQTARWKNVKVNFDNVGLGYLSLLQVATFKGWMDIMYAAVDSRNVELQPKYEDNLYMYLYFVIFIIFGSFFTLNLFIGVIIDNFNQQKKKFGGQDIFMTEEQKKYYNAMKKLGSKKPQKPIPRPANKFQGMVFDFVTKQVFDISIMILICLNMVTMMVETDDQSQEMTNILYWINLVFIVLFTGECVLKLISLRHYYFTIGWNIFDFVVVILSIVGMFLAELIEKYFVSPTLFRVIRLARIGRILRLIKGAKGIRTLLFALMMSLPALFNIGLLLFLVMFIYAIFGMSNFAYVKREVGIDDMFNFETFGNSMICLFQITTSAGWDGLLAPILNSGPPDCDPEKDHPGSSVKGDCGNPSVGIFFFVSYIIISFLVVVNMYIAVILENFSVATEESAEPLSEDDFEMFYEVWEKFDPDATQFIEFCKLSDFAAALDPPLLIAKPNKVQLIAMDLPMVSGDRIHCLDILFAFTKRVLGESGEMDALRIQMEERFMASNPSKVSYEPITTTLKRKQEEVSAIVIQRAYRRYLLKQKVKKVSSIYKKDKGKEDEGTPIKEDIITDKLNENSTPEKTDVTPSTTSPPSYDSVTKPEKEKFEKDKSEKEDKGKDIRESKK
compound,measurement,setting,value
CN(C)CCCN1c2ccccc2Sc2ccc(Cl)cc21 [chlorpromazine],class of pH-dependence pattern (cluster analysis),,Class G
same,alkalization-induced recovery,"neutral-to-alkalic solution exchange, in words",prominent alkalization-induced recovery
same,reversibility at all three pH values,"pH 6.0, 7.3 and 8.6",below 0.6
same,Ratio Reversibility,"pH 6.0/7.3, cc 30 mM",1.906
same,Ratio Tau Offset,"pH 6.0/7.3, cc 30 mM",0.831
same,Ratio Tau Onset,"pH 6.0/7.3, cc 30 mM",0.874
same,log Ratio App Aff,"pH 6.0/7.3, cc 30 mM",0.077
same,Ratio Reversibility,"pH 6.0/8.6, cc 30 mM",1.432
same,Ratio Tau Offset,"pH 6.0/8.6, cc 30 mM",0.715
same,Ratio Tau Onset,"pH 6.0/8.6, cc 30 mM",0.660
same,log Ratio App Aff,"pH 6.0/8.6, cc 30 mM",0.339
same,τoffset,pH 6.0,23.60 s
same,τonset,pH 6.0,19.40 s
same,Kd,[1],37.5 µM
same,Ratio Reversibility,"pH 7.3/8.6, cc 30 mM",0.751
same,Ratio Tau Offset,"pH 7.3/8.6, cc 30 mM",0.861
same,Ratio Tau Onset,"pH 7.3/8.6, cc 30 mM",0.755
same,log Ratio App Aff,"pH 7.3/8.6, cc 30 mM",0.261
same,τoffset,pH 7.3,28.40 s
same,τonset,pH 7.3,22.20 s
same,Kd,[2],31.4 µM
same,τoffset,pH 8.6,33.00 s
same,τonset,pH 8.6,29.40 s
same,Kd,[3],17.2 µM
same,Reversibility,"pH=6.0, cc 30 mM",0.53
same,Kd,[4],37.5 µM
same,Reversibility,"pH=7.3, cc 30 mM",0.28
same,Kd,[5],31.4 µM
same,Reversibility,"pH=8.6, cc 30 mM",0.37
same,Kd,[6],17.2 µM
COc1ccccc1OCC(O)CN1CCN(CC(=O)Nc2c(C)cccc2C)CC1 (centres unmarked) [ranolazine],class of pH-dependence pattern (cluster analysis),,Class A
same,Ratio Reversibility,"pH 6.0/7.3, cc 100 mM",0.873
same,Ratio Tau Offset,"pH 6.0/7.3, cc 100 mM",1.223
same,Ratio Tau Onset,"pH 6.0/7.3, cc 100 mM",0.632
same,log Ratio App Aff,"pH 6.0/7.3, cc 100 mM",-0.038
same,Ratio Reversibility,"pH 6.0/8.6, cc 100 mM",1.042
same,Ratio Tau Offset,"pH 6.0/8.6, cc 100 mM",1.663
same,Ratio Tau Onset,"pH 6.0/8.6, cc 100 mM",0.667
same,log Ratio App Aff,"pH 6.0/8.6, cc 100 mM",-0.072
same,τoffset,pH 6.0,29.60 s
same,τonset,pH 6.0,12.00 s
same,Kd,[1],206 µM
same,Ratio Reversibility,"pH 7.3/8.6, cc 100 mM",1.194
same,Ratio Tau Offset,"pH 7.3/8.6, cc 100 mM",1.360
same,Ratio Tau Onset,"pH 7.3/8.6, cc 100 mM",1.056
same,log Ratio App Aff,"pH 7.3/8.6, cc 100 mM",-0.034
same,τoffset,pH 7.3,24.20 s
same,τonset,pH 7.3,19.00 s
same,Kd,[2],225 µM
same,τoffset,pH 8.6,17.80 s
same,τonset,pH 8.6,18.00 s
same,Kd,[3],243 µM
same,Reversibility,"pH=6.0, cc 100 mM",0.76
same,Kd,"pH=6.0, cc 100 mM, read-out: Apparent Affinity",206 µM
same,Reversibility,"pH=7.3, cc 100 mM",0.88
same,Kd,"pH=7.3, cc 100 mM, read-out: Apparent Affinity",225 µM
same,Reversibility,"pH=8.6, cc 100 mM",0.73
same,Kd,"pH=8.6, cc 100 mM, read-out: Apparent Affinity",243 µM
CNCCCN1c2ccccc2CCc2ccccc21 [desipramine],class of pH-dependence pattern (cluster analysis),,Class C
same,effect of alkalic pH on onset/offset kinetics,in words,acceleration of onset
same,τoffset,pH 6.0,56.80 s
same,τonset,pH 6.0,65.77 s
same,τoffset,pH 7.3,57.40 s
same,τonset,pH 7.3,44.40 s
same,τoffset,pH 8.6,59.00 s
same,τonset,pH 8.6,26.92 s
same,Reversibility,"pH=6.0, cc 30 mM",0.64
same,Reversibility,"pH=7.3, cc 30 mM",0.42
same,Reversibility,"pH=8.6, cc 30 mM",0.11
COc1ccc(C(CN(C)C)C2(O)CCCCC2)cc1 (centres unmarked) [venlafaxine],Kd,"Apparent Affinity, pH=6.0, cc 100 mM",810 µM
same,Kd,"Apparent Affinity, pH=7.3, cc 100 mM",539 µM
same,Kd,"Apparent Affinity, pH=8.6, cc 100 mM",174 µM
same,class of pH-dependence pattern (cluster analysis),,Class D
same,Kd,"apparent affinity, pH 6.0, single concentration (lidocaine 300 μM, memantine 30 μM), geometric mean of 5",810 µM
same,Kd,"apparent affinity, pH 7.3, single concentration (lidocaine 300 μM, memantine 30 μM), geometric mean of 5",539 µM
same,Kd,"apparent affinity, pH 8.6, single concentration (lidocaine 300 μM, memantine 30 μM), geometric mean of 5",174 µM
same,inhibition at 100 µM,pH 6,< 25%
same,Ratio Reversibility,"pH 6.0/7.3, cc 100 mM",0.250
same,Ratio Tau Offset,"pH 6.0/7.3, cc 100 mM",1.446
same,Ratio Tau Onset,"pH 6.0/7.3, cc 100 mM",1.639
same,log Ratio App Aff,"pH 6.0/7.3, cc 100 mM",0.177
same,Ratio Reversibility,"pH 6.0/8.6, cc 100 mM",0.250
same,Ratio Tau Offset,"pH 6.0/8.6, cc 100 mM",1.330
same,Ratio Tau Onset,"pH 6.0/8.6, cc 100 mM",1.405
same,log Ratio App Aff,"pH 6.0/8.6, cc 100 mM",0.669
same,τoffset,pH 6.0,13.30 s
same,τonset,pH 6.0,11.80 s
same,inhibition at 100 µM,pH 7.3,< 25%
same,Ratio Reversibility,"pH 7.3/8.6, cc 100 mM",0.999
same,Ratio Tau Offset,"pH 7.3/8.6, cc 100 mM",0.920
same,Ratio Tau Onset,"pH 7.3/8.6, cc 100 mM",0.857
same,log Ratio App Aff,"pH 7.3/8.6, cc 100 mM",0.492
same,τoffset,pH 7.3,9.20 s
same,τonset,pH 7.3,7.20 s
same,τoffset,pH 8.6,10.00 s
same,τonset,pH 8.6,8.40 s
same,effect of acidic pH on recovery,"pH = 6.0 vs 7.3, in words",decreased recovery
same,Reversibility,"pH=6.0, cc 100 mM",0.18
same,Reversibility,"pH=7.3, cc 100 mM",0.73
same,Reversibility,"pH=8.6, cc 100 mM",0.73
CN(C)CCC=C1c2ccccc2CCc2ccccc21 [amitriptyline],class of pH-dependence pattern (cluster analysis),,Class C
same,Ratio Reversibility,"pH 6.0/7.3, cc 30 mM",1.364
same,Ratio Tau Offset,"pH 6.0/7.3, cc 30 mM",1.193
same,Ratio Tau Onset,"pH 6.0/7.3, cc 30 mM",1.086
same,log Ratio App Aff,"pH 6.0/7.3, cc 30 mM",0.202
same,Ratio Reversibility,"pH 6.0/8.6, cc 30 mM",5.190
same,Ratio Tau Offset,"pH 6.0/8.6, cc 30 mM",0.838
same,Ratio Tau Onset,"pH 6.0/8.6, cc 30 mM",1.116
same,log Ratio App Aff,"pH 6.0/8.6, cc 30 mM",0.469
same,τoffset,pH 6.0,23.45 s
same,τonset,pH 6.0,16.40 s
same,Kd,[1],40.7 µM
same,Ratio Reversibility,"pH 7.3/8.6, cc 30 mM",3.806
same,Ratio Tau Offset,"pH 7.3/8.6, cc 30 mM",0.702
same,Ratio Tau Onset,"pH 7.3/8.6, cc 30 mM",1.027
same,log Ratio App Aff,"pH 7.3/8.6, cc 30 mM",0.267
same,τoffset,pH 7.3,19.66 s
same,τonset,pH 7.3,15.10 s
same,Kd,[2],25.6 µM
same,τoffset,pH 8.6,28.00 s
same,τonset,pH 8.6,14.70 s
same,Kd,[3],13.8 µM
same,Reversibility,"pH=6.0, cc 30 mM",0.74
same,Kd,[4],40.7 µM
same,Reversibility,"pH=7.3, cc 30 mM",0.55
same,Kd,[5],25.6 µM
same,Reversibility,"pH=8.6, cc 30 mM",0.14
same,Kd,[6],13.8 µM
